Measurements taken from patent US11554133B2, “Bile acid synthesis promoter, composition for promoting bile acid synthesis and food composition for promoting bile acid synthesis” (KRACIE HOLDINGS, LTD., priority 2017, dated 2023).

Legend:
[1] = system: bile acid in feces; assay: Measurement of the amount of bile acid in feces (UPLC-MS/MS) of db/db mice fed arctigenin diet; assay type: in vivo; conditions: 0.2% arctigenin in purified diet for nine weeks, pooled feces at end of administration
Experimental: (§1) Using 5-week-old male db/db mice (BKS.Cg−+Leprdb/+Leprdb/Jcl, purchased from CLEA Japan, Inc.) that were leptin receptor-deficient model, the experiments were started after one-week preliminary rearing. The animals were reared under the environment of 23.0±5° C. of temperature, 50.0±10% of humidity and 12 hours of light-dark cycle. The animal experiments were approved by animal care and use committee of Keio University and carried out based on animal experiment rules of Keio University.
(§2) After preliminary rearing, mice were divided into two groups of (a) control group and (b) arctigenin administrated group (AG group) (each group n=8), and made AG group intake purified diet combined with arctigenin (>98.0%) 0.2% and purified diet (AIN-93G) for control group freely for nine weeks. After administration, 18-hour fasting was performed, and blood specimens were collected from abdominal vena cava under anesthesia, and the liver and the small intestine were sampled.
Feces were collected from the rearing cage of each group at the end of the administration period, and the amount of bile acid in feces was measured. 10 mg of dry powder of pooled feces was suspended in 0.2 mL of 90% ethanol and incubated at 65° C. for 1 hour, and the supernatant after centrifugation and the washing of the precipitates were collected together. […]

[2] = system: total cholesterol in the liver; assay: Measurement of total cholesterol in liver of db/db mice fed arctigenin diet; assay type: in vivo; conditions: 0.2% arctigenin in purified diet for nine weeks, liver lipid extract
Experimental: Using 5-week-old male db/db mice (BKS.Cg−+Leprdb/+Leprdb/Jcl, purchased from CLEA Japan, Inc.) that were leptin receptor-deficient model, the experiments were started after one-week preliminary rearing. The animals were reared under the environment of 23.0±5° C. of temperature, 50.0±10% of humidity and 12 hours of light-dark cycle. The animal experiments were approved by animal care and use committee of Keio University and carried out based on animal experiment rules of Keio University. After preliminary rearing, mice were divided into two groups of (a) control group and (b) arctigenin administrated group (AG group) (each group n=8), and made AG group intake purified diet combined with arctigenin (>98.0%) 0.2% and purified diet (AIN-93G) for control group freely for nine weeks. After administration, 18-hour fasting was performed, and blood specimens were collected from abdominal vena cava under anesthesia, and the liver and the small intestine were sampled. Homogenate the liver obtained from each group and extracted total lipid using a lipid extraction kit (Lipid Extraction Kit (Chloroform-Free), Cell Biolabs, Inc.). A total cholesterol level was measured from lipid extract using cholesterol E-test Wako (Wako Pure Chemical Corporation). FIG. 2 is a graph showing the amount of total cholesterol in the liver (mg/dL) in control group and AG group. […]

[3] = system: Cyp8b1 of the liver; assay: Liver Cyp8b1 mRNA expression by qPCR; assay type: in vivo; conditions: db/db mice, 0.2% arctigenin diet nine weeks, qPCR vs 18S rRNA, Student's t-test
Experimental: as §1, §2
(§3) After having performed extraction of total RNA from the obtained organs and cDNA synthesis on each group, the expression level of Cyp8b1, SHP, FXR and FGF4R of the liver which are the liver cholesterol metabolism-related genes and small intestinal FGF15 and SHP were compared by qPCR. As control, 18S rRNA was used. […]

[4] = system: SHP of the liver; assay: Liver SHP mRNA expression by qPCR; assay type: in vivo; conditions: db/db mice, 0.2% arctigenin diet nine weeks, qPCR vs 18S rRNA, Student's t-test
Experimental: as §1, §2, §3

[5] = system: FXR of the liver; assay: Liver FXR mRNA expression by qPCR; assay type: in vivo; conditions: db/db mice, 0.2% arctigenin diet nine weeks, qPCR vs 18S rRNA, Student's t-test
Experimental: as §1, §2, §3

[6] = system: FGF4R of the liver; assay: Liver FGF4R mRNA expression by qPCR; assay type: in vivo; conditions: db/db mice, 0.2% arctigenin diet nine weeks, qPCR vs 18S rRNA, Student's t-test
Experimental: as §1, §2, §3

[7] = system: small intestinal FGF15; assay: Small intestinal FGF15 mRNA expression by qPCR; assay type: in vivo; conditions: db/db mice, 0.2% arctigenin diet nine weeks, qPCR vs 18S rRNA
Experimental: as §1, §2, §3

[8] = system: small intestinal SHP; assay: Small intestinal SHP mRNA expression by qPCR; assay type: in vivo; conditions: db/db mice, 0.2% arctigenin diet nine weeks, qPCR vs 18S rRNA
Experimental: as §1, §2, §3

[9] = general statement, no test described; cited from earlier work

## COc1cc(C[C@H]2C(=O)OC[C@@H]2Cc2ccc(OC)c(OC)c2)ccc1O [arctigenin]
[1]
  amount of total bile acid in feces in comparison with control group: large amount
[2]
  amount of total cholesterol in the liver versus control group: little amount
[3]
  relative mRNA expression level of Cyp8b1 of the liver in comparison with control group: significantly high
[4]
  relative mRNA expression level of SHP of the liver in comparison with control group: significantly low
[5]
  relative mRNA expression level of FXR of the liver in comparison with control group: significantly low
[6]
  relative mRNA expression level of FGF4R of the liver in comparison with control group: significantly low
[7]
  relative mRNA expression level of small intestinal FGF15 in comparison with control group: low
[8]
  relative mRNA expression level of small intestinal SHP in comparison with control group: low
[9]
  solubility in water: water-insoluble
